Data: patent US6737383B1, “Herbicidal oxadiazolidines” (priority 1999, dated 2004)

Tests used:
bedstraw = assay: Test B pre/postemergence bedstraw; assay type: in vivo, Galium aparine; details: Postemergence, 10 is complete control
How it was run: (§1)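 Herbicidal effect was estimated by eye on a ten-point control scale after plants spent twelve to sixteen days in a greenhouse following soil or foliar treatment. Foliar sprays targeted plants at one to four leaves; all doses were formulated in a non-phytotoxic solvent with surfactant.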

blackgrass = assay: Test B pre/postemergence blackgrass; assay type: in vivo, Alopecurus myosuroides
How it was run: as §1

surinam grass = assay: Test B pre/postemergence surinam grass; assay type: in vivo, Brachiaria decumbens
How it was run: as §1

cocklebur = assay: Test B pre/postemergence cocklebur; assay type: in vivo, Xanthium strumarium
How it was run: as §1

corn = assay: Test B pre/postemergence corn; assay type: in vivo, Zea mays
How it was run: as §1

crabgrass = assay: Test B pre/postemergence crabgrass; assay type: in vivo, Digitaria sanguinalis
How it was run: as §1

morningglory = assay: Test B pre/postemergence morningglory; assay type: in vivo, Ipomoea hederacea
How it was run: as §1

pigweed = assay: Test B pre/postemergence pigweed; assay type: in vivo, Amaranthus retroflexus
How it was run: as §1

rape = assay: Test B pre/postemergence rape; assay type: in vivo, Brassica napus
How it was run: as §1

sugar beet = assay: Test B pre/postemergence sugar beet; assay type: in vivo, Beta vulgaris
How it was run: as §1

velvetleaf = assay: Test B pre/postemergence velvetleaf; assay type: in vivo, Abutilon theophrasti
How it was run: as §1

wheat = assay: Test B pre/postemergence wheat; assay type: in vivo, Triticum aestivum
How it was run: as §1

wild oat = assay: Test B pre/postemergence wild oat; assay type: in vivo, Avena fatua
How it was run: as §1

purple nutsedge = assay: Test B pre/postemergence purple nutsedge; assay type: in vivo, Cyperus rotundus
How it was run: as §1

smallflower flatsedge = assay: Test B flood test smallflower flatsedge; assay type: in vivo, Cyperus difformis
How it was run: (§2)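 Each value is a visual injury score relative to controls, with 10 meaning complete control and 0 no effect. Evaluation took place twelve to sixteen days after the 2-leaf-stage plants were treated and kept in the greenhouse.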

duck salad = assay: Test B flood test duck salad; assay type: in vivo, Heteranthera limosa
How it was run: as §2

[1] = Postemergence, Rate 62 g/ha, scale 0 to 10, 0 is no effect, 10 is complete control
[2] = Postemergence, Rate 125 g/ha, scale of 0 to 10 where 0 is no effect and 10 is complete control
[3] = Postemergence, Rate 250 g/ha, scale of 0 to 10, 0 is no effect, 10 is complete control
[4] = Postemergence, Rate 500 g/ha, scale of 0 to 10 where 0 is no effect and 10 is complete control
[5] = Preemergence, Rate 62 g/ha, scale of 0 to 10 where 0 is no effect and 10 is complete control
[6] = Preemergence, Rate 125 g/ha, scale of 0 to 10 where 0 is no effect and 10 is complete control
[7] = Preemergence, Rate 250 g/ha, scale 0 to 10 (0 no effect, 10 complete control)
[8] = Preemergence, Rate 500 g/ha, scale of 0 to 10 where 0 is no effect and 10 is complete control
[9] = Rate 62 g/ha, flood test species, Pre-emergence, visual evaluation after twelve to sixteen days
[10] = Rate 125 g/ha, under heading Pre-emergence, flood test species, visual evaluation after twelve to sixteen days
[11] = Rate 250 g/ha, Pre-emergence (flood test species), scale 0 to 10, 0 is no effect, 10 is complete control
[12] = Rate 500 g/ha, Pre-emergence section of Table B, 0 to 10 scale (0 no effect, 10 complete control)

SMILES: CC(C)N(C(=O)n1oc(=O)n(Cc2nnc(Cl)s2)c1=O)c1ccc(F)cc1F [Compound 645]
- Plant response rating, Bedstraw (bedstraw; Rate 62 g/ha, scale 0 to 10, 0 is no effect): 0
- Bedstraw plant response rating (bedstraw; Rate 250 g/ha, scale of 0 to 10, 0 is no effect): 0
- Plant response rating, Blackgrass (blackgrass; [1]): 0
- Blackgrass plant response rating (blackgrass; [2]): 0
- Blackgrass plant response rating (blackgrass; [3]): 0
- Plant response rating, Blackgrass (blackgrass; [4]): 0
- Blackgrass plant response rating (blackgrass; [5]): 0
- Blackgrass plant response rating (blackgrass; [6]): 0
- Plant response rating, Blackgrass (blackgrass; [7]): 0
- Plant response rating, Blackgrass (blackgrass; [8]): 0
- Plant response rating, B. signalgrass (surinam grass; [1]): 0
- Plant response rating, B. signalgrass (surinam grass; [2]): 0
- B. signalgrass plant response rating (surinam grass; [3]): 0
- Plant response rating, B. signalgrass (surinam grass; [4]): 0
- B. signalgrass plant response rating (surinam grass; [5]): 0
- B. signalgrass plant response rating (surinam grass; [6]): 0
- Plant response rating, B. signalgrass (surinam grass; [7]): 0
- Plant response rating, B. signalgrass (surinam grass; [8]): 0
- Plant response rating, Cocklebur (cocklebur; [1]): 0
- Cocklebur plant response rating (cocklebur; [2]): 0
- Cocklebur plant response rating (cocklebur; [3]): 3
- Plant response rating, Cocklebur (cocklebur; [4]): 7
- Cocklebur plant response rating (cocklebur; [5]): 0
- Cocklebur plant response rating (cocklebur; [6]): 0
- Plant response rating, Cocklebur (cocklebur; [7]): 0
- Plant response rating, Cocklebur (cocklebur; [8]): 0
- Plant response rating, Corn (corn; [1]): 0
- Corn plant response rating (corn; [2]): 0
- Corn plant response rating (corn; [3]): 0
- Plant response rating, Corn (corn; [4]): 0
- Corn plant response rating (corn; [5]): 0
- Corn plant response rating (corn; [6]): 0
- Plant response rating, Corn (corn; [7]): 0
- Plant response rating, Corn (corn; [8]): 0
- Plant response rating, Crabgrass (crabgrass; [1]): 0
- Crabgrass plant response rating (crabgrass; [2]): 0
- Crabgrass plant response rating (crabgrass; [3]): 0
- Plant response rating, Crabgrass (crabgrass; [4]): 3
- Crabgrass plant response rating (crabgrass; [5]): 2
- Crabgrass plant response rating (crabgrass; [6]): 3
- Plant response rating, Crabgrass (crabgrass; [7]): 4
- Plant response rating, Crabgrass (crabgrass; [8]): 5
- Plant response rating, Morningglory (morningglory; [1]): 0
- Morningglory plant response rating (morningglory; [2]): 0
- Morningglory plant response rating (morningglory; [3]): 1
- Plant response rating, Morningglory (morningglory; [4]): 3
- Morningglory plant response rating (morningglory; [5]): 0
- Morningglory plant response rating (morningglory; [6]): 0
- Plant response rating, Morningglory (morningglory; [7]): 0
- Plant response rating, Morningglory (morningglory; [8]): 0
- Plant response rating, Redroot pigweed (pigweed; [1]): 0
- Redroot pigweed plant response rating (pigweed; [2]): 2
- Redroot pigweed plant response rating (pigweed; [5]): 0
- Redroot pigweed plant response rating (pigweed; [6]): 0
- Plant response rating, Redroot pigweed (pigweed; [7]): 0
- Plant response rating, Redroot pigweed (pigweed; [8]): 4
- Plant response rating, Rape (rape; [1]): 0
- Rape plant response rating (rape; [2]): 0
- Plant response rating, Rape (rape; [4]): 0
- Rape plant response rating (rape; [5]): 0
- Rape plant response rating (rape; [6]): 0
- Plant response rating, Rape (rape; [7]): 0
- Plant response rating, Rape (rape; [8]): 0
- Plant response rating, Sugarbeets (sugar beet; [1]): 0
- Sugarbeets plant response rating (sugar beet; [2]): 0
- Sugarbeets plant response rating (sugar beet; [5]): 0
- Sugarbeets plant response rating (sugar beet; [6]): 0
- Plant response rating, Sugarbeets (sugar beet; [7]): 0
- Plant response rating, Sugarbeets (sugar beet; [8]): 0
- Plant response rating, Velvetleaf (velvetleaf; [1]): 0
- Velvetleaf plant response rating (velvetleaf; [2]): 0
- Velvetleaf plant response rating (velvetleaf; [5]): 0
- Velvetleaf plant response rating (velvetleaf; [6]): 0
- Plant response rating, Velvetleaf (velvetleaf; [7]): 0
- Plant response rating, Velvetleaf (velvetleaf; [8]): 0
- Plant response rating, Wheat (wheat; [1]): 0
- Wheat plant response rating (wheat; [2]): 0
- Wheat plant response rating (wheat; [5]): 0
- Wheat plant response rating (wheat; [6]): 0
- Plant response rating, Wheat (wheat; [7]): 0
- Plant response rating, Wheat (wheat; [8]): 0
- Plant response rating, Wild oats (wild oat; [1]): 0
- Wild oats plant response rating (wild oat; [2]): 0
- Wild oats plant response rating (wild oat; [5]): 0
- Wild oats plant response rating (wild oat; [6]): 0
- Plant response rating, Wild oats (wild oat; [7]): 0
- Plant response rating, Wild oats (wild oat; [8]): 0
- Plant response rating, Nutsedge (purple nutsedge; [1]): 0
- Nutsedge plant response rating (purple nutsedge; [2]): 0
- Nutsedge plant response rating (purple nutsedge; [5]): 0
- Nutsedge plant response rating (purple nutsedge; [6]): 0
- Plant response rating, Nutsedge (purple nutsedge; [7]): 0
- Plant response rating, Nutsedge (purple nutsedge; [8]): 0
- Plant response rating, S. Flatsedge (0 to 10 scale, 0 is no effect, 10 is complete control) (smallflower flatsedge; [9]): 0
- S. Flatsedge plant response rating (0 to 10 scale, 0 is no effect, 10 is complete control) (smallflower flatsedge; [10]): 0
- S. Flatsedge plant response rating (smallflower flatsedge; [11]): 0
- S. Flatsedge plant response rating (smallflower flatsedge; [12]): 0
- Plant response rating, Ducksalad (0 to 10 scale, 0 is no effect, 10 is complete control) (duck salad; [9]): 0
- Ducksalad plant response rating (0 to 10 scale, 0 is no effect, 10 is complete control) (duck salad; [10]): 0
- Ducksalad plant response rating (duck salad; [11]): 0
- Ducksalad plant response rating (duck salad; [12]): 0
